Reference: PubChem BioAssay AID463204 (Broad Institute, 2010)
Activity calls are given as the source filed them.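 Rule for the calls: active = AC50 no more than ten times the top concentration tested, that is within one log above it; inconclusive = flat curve fit with activity between 30% and 70%, or invalid poor fit; inactive = AC50 beyond ten times the top tested dose.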

The compounds below were run on S. cerevisiae Mot1-301 ts growth rescue, BacTiter-Glo ATP luminescence (assay: restored Mot1-301 yeast growth at 38.5C – whole organism, S. cerevisiae, Mot1-301 ts mutant, luminescence, dose retest, SUMOylation pathway inhibitor project, confirmation (AID 463204);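 note: growth at restrictive 38.5 degrees C of Mot1-301 OY566 strain; actives raise luminescence by restoring growth of the ts mutant at high temperature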).

Row | SMILES | AC50
1 | COC(=O)C1(Cc2ccc(O)cc2)OC(=O)C(O)=C1c1ccc(O)cc1 (centres undefined) | > 42 µM (inactive)
2 | COc1ccc(NC(=O)C2CCCN(C(=O)Nc3cccc(OC)c3)C2)cc1 (centres undefined) | > 42 µM (inactive)
3 | CCOC(=O)c1sc2ncnc(N3CCN(c4ccc(OC)cc4)CC3)c2c1C | > 42 µM (inactive)
4 | CCOC(=O)NC1(Nc2ccc(C)cc2)Oc2ccccc2O1 | > 42 µM (inactive)
5 | CCOC(=O)C1(Cc2cccc(Cl)c2)CCCN(C(=O)CCOC)C1 (centres undefined) | > 42 µM (inactive)
6 | O=S(=O)(Cc1ccccc1)N1CCN(c2ncccn2)CC1 | > 42 µM (inactive)
7 | CS(=O)(=O)c1ccc(Cl)c(C(=O)O)c1 | > 42 µM (inactive)
8 | CC(C)(C)NC(=O)C1Cc2ccccc2CN1S(=O)(=O)c1ccc(F)cc1 (centres undefined) | > 42 µM (inactive)
9 | Cc1nc(CCNC(=O)c2ccccc2)cs1 | > 42 µM (inactive)
10 | CCOc1ccc(-c2nc3n(c(=O)c2C#N)CCS3)cc1 | > 42 µM (inactive)
11 | Cc1ccccc1-c1nnc(SCc2ccc(F)cc2)o1 | > 42 µM (inactive)
12 | CC(=O)Nc1ccc(/C(C)=N/NC(=O)c2ccncc2)cc1 | > 42 µM (inactive)
13 | COc1ccc(N2CCN(C(c3cccs3)C(C)NS(C)(=O)=O)CC2)cc1 (centres undefined) | > 42 µM (inactive)
14 | CCOc1ccc(OCC)c(NC(=O)C2COc3ccccc3O2)c1 (centres undefined) | > 42 µM (inactive)
15 | C=CCN1C(=O)/C(=C\c2ccc(C)cc2)N=C1SCC(=O)NCCC | > 42 µM (inactive)
16 | Cc1ccc(C2C(C(=O)c3cccs3)=C(O)C(=O)N2c2ccc(S(N)(=O)=O)cc2)cc1 (centres undefined) | > 42 µM (inactive)
17 | O=C(NCc1ccccn1)C1CC(c2ccc(Cl)c(Cl)c2)=NO1 (centres undefined) | > 42 µM (inactive)
18 | Cc1ccc(-n2c(SCC(=O)N(C)C3CCS(=O)(=O)C3)nc3ccccc3c2=O)cc1 (centres undefined) | > 42 µM (inactive)
19 | Cc1cccc(N2CN=c3s/c(=C\c4ccccn4)c(=O)n3C2)c1 | > 42 µM (inactive)
20 | COc1ccccc1CNc1ncnc2c1nnn2Cc1ccccc1 | 40.1 µM
21 | CC(C)(C)NC(=O)CC1C(=O)NCCN1Cc1c(F)cccc1Cl (centres undefined) | > 42 µM (inactive)
22 | Cc1ccc(/C=C2\SC(N3CCCC3)=NC2=O)cc1 | > 42 µM (inactive)
23 | COc1ccc(NC(=O)CN(C)C(=O)c2cc(C)on2)cc1 | > 42 µM (inactive)
24 | CC(=O)c1ccc(Oc2cc(C)nc(N3CCOCC3)n2)cc1 | > 42 µM (inactive)
25 | CC(=O)c1ccc(Nc2cc(C)nc3ccccc23)cc1 | > 42 µM (inactive)

Row | SMILES | AC50
26 | Cc1cc(/C=N/NC(=O)c2ccsc2)c(C)n1-c1cnccn1 | > 42 µM (inactive)
27 | COC(=O)[C@@H](NC(=O)Nc1ccc(S(N)(=O)=O)cc1)C(C)C | > 42 µM (inactive)
28 | CCOC(=O)NNC(=O)CCn1c2c(c3ccccc31)CCCC2 | > 42 µM (inactive)
29 | COc1cccc(C2/C(=C(/O)c3ccccc3)C(=O)C(=O)N2Cc2ccco2)c1 (centres undefined) | > 42 µM (inactive)
30 | CN(Cc1ccc(C(C)(C)C)cc1)C(=O)c1ccc2c(=O)n3c(nc2c1)CCC3 | > 42 µM (inactive)
31 | O=C(c1ccc(OC2CCN(CCc3ccccc3)CC2)cc1)N1CCCC1 | > 42 µM (inactive)
32 | O=C(NCC(c1cccs1)N1CCOCC1)c1ccccc1NS(=O)(=O)c1cc([N+](=O)[O-])ccc1Cl (centres undefined) | > 42 µM (inactive)
33 | COCC(C)n1c(SCC(=O)NNC(=O)c2ccccc2)nc2ccccc2c1=O (centres undefined) | > 42 µM (inactive)
34 | Cc1ccc(N(CC(=O)NC2CCCC2)C(=O)CCC(=O)Nc2ccccn2)cc1C | > 42 µM (inactive)
35 | CNC(=O)c1ccccc1NC(=O)c1c(O)c2c([nH]c1=O)CCCC2 | > 42 µM (inactive)
36 | Cc1cccc2nc3ccccc3cc12 | > 42 µM (inactive)
37 | O=C(Cn1cnc2ccccc2c1=O)c1ccc(OC(F)F)cc1 | > 42 µM (inactive)
38 | C[C@H]1O[C@H]1P(=O)(O)O | > 42 µM (inactive)
39 | Cc1cc(NC(=O)CC2CCCC2)ccc1Br | > 42 µM (inactive)
40 | Cc1cccc(C)c1NC(=O)C1(N(Cc2ccco2)C(=O)CC2NC(=O)NC2=O)CCCCC1 (centres undefined) | > 42 µM (inactive)
41 | Oc1c(Br)cc(Cl)cc1C=Nc1ccccc1Br | 4.15 µM
42 | CC(C)(c1ccccc1)c1ccc(OCCN2CCOCC2)cc1 | > 42 µM (inactive)
43 | Cc1ccc(SCCC(=O)Nc2ccc(OCc3ccccc3)cc2)cc1 | > 42 µM (inactive)
44 | CCCC(=O)N(CCN1CCOCC1)c1nc2ccc(OCC)cc2s1 | > 42 µM (inactive)
45 | Cc1ccc(NS(=O)(=O)c2ccc(NC(=O)C3CCCO3)cc2)cc1 (centres undefined) | > 42 µM (inactive)
46 | CCN(CC)C(=O)Cn1c(=O)n(CCCC(=O)NCc2ccccc2)c(=O)c2sccc21 | > 42 µM (inactive)
47 | CCOP(=O)(Cc1cc(C(=O)CC)c(C)o1)OCC | > 42 µM (inactive)
48 | Cc1ccc2c(c1)N(CC(=O)NCC1CCCO1)C(=O)C(C)O2 (centres undefined) | > 42 µM (inactive)
49 | NNC(=O)c1[nH]c2ccccc2c1-c1ccccc1 | > 42 µM (inactive)
50 | C=C(C)Cn1c(N)cc(=O)nc1SCC(=O)Nc1cccc(C(F)(F)F)c1 | > 42 µM (inactive)

Row | SMILES | AC50
51 | O=C(NCCCn1ccnc1)c1ccc(Cl)cc1 | > 42 µM (inactive)
52 | CCOc1ccc(C)cc1S(=O)(=O)n1nc(C)cc1C | > 42 µM (inactive)
53 | COc1ccc(S(=O)(=O)N2CCOC2CNC(=O)C(=O)NCc2ccncc2)cc1C (centres undefined) | > 42 µM (inactive)
54 | COc1ccc(NC2=C(C)C(=O)CC2)cc1 | > 42 µM (inactive)
55 | O=C(CN(CC1CCCO1)C(=O)CNS(=O)(=O)c1ccc(F)cc1)NCc1ccccc1 (centres undefined) | > 42 µM (inactive)
56 | O=C(c1ccco1)N1CCN(CC(=O)N2c3ccccc3CCc3ccccc32)CC1 | > 42 µM (inactive)
57 | CCn1c(-c2ccccc2)c(C(=O)CC#N)c2ccccc21 | > 42 µM (inactive)
58 | O=C(Nc1cnn(Cc2ccc(Cl)cc2)c1)c1ccc([N+](=O)[O-])cc1 | > 42 µM (inactive)
59 | CN(C)c1ccc(CN(Cc2ccco2)C(=O)c2ccco2)cc1 | > 42 µM (inactive)
60 | CCOc1ccccc1/C=N\Nc1cnn(Cc2ccccc2)c(=O)c1Cl | > 42 µM (inactive)
61 | O=C(CC1(CC2=NS(=O)(=O)c3ccccc3N2)CCCC1)NCCc1ccccc1 | > 42 µM (inactive)
62 | O=[N+]([O-])c1cc([N+](=O)[O-])c2cc3ccccc3nc2c1 | 2.63 µM
63 | CC(NC(=O)C1CCCCC1)C(=O)NC1=NCCS1 (centres undefined) | > 42 µM (inactive)
64 | CC(C)C(NC(=O)c1ccccc1)C(=O)NCC(c1ccccc1)N(C)C (centres undefined) | > 42 µM (inactive)
65 | CCOCCCNC(=O)C(c1ccc(OC)cc1)N(Cc1cccs1)C(=O)c1ccccn1 (centres undefined) | > 42 µM (inactive)
66 | CN(C)S(=O)(=O)N1CCc2ccccc2C1 | > 42 µM (inactive)
67 | COc1ccc(NC(=O)Cn2c(=O)cnc3ccccc32)cc1S(=O)(=O)N1CCCCC1 | > 42 µM (inactive)
68 | Clc1ccc(CNCc2cccs2)cc1Cl | > 42 µM (inactive)
69 | CCN(C(=O)CCS(=O)(=O)c1ccc2c(c1)oc(=O)n2C)c1ccc(OC)cc1 | > 42 µM (inactive)
70 | COc1cc(C(=O)NCCOc2cc(C)cc(C)c2)cc(OC)c1OC | > 42 µM (inactive)
71 | COC(=O)CN1C(=O)c2cccc3cccc1c23 | > 42 µM (inactive)
72 | COC(=O)[C@@]12CCCCN1[C@H](c1ccc(-c3ccc(C(C)=O)cc3)cc1)[C@@H]1C(=O)N(C)C(=O)[C@@H]12 | > 42 µM (inactive)
73 | CCCc1cc(=O)oc2c3c(c4c(c12)OC(C)(C)C=C4)OC(C)C(C)C3O (centres undefined) | > 42 µM (inactive)
74 | Brc1ccc(-c2cn3cccnc3n2)cc1 | > 42 µM (inactive)
75 | COc1ccc2cc3c(N)nn(C(=O)c4ccccc4Cl)c3nc2c1 | > 42 µM (inactive)

Row | SMILES | AC50
76 | C=CCN(C(=O)CNC(=O)c1ccco1)C(C(=O)NC1CCCCC1)c1ccccc1 (centres undefined) | > 42 µM (inactive)
77 | CCCCCCC(C)n1[nH]c(=O)c2c(C)cc(=O)[nH]c21 (centres undefined) | > 42 µM (inactive)
78 | CC1CN(S(=O)(=O)c2cccc(C(=O)N=c3sccn3C)c2)CC(C)O1 (centres undefined) | > 42 µM (inactive)
79 | CC1(C)CCc2cc(CN3CCN(c4ccccn4)CC3)ccc2O1 | > 42 µM (inactive)
80 | CCCCn1c2nc3ccccc3nc2c2c(=O)n(CCC)cnc21 | > 42 µM (inactive)
81 | O=C1CN(C(=O)COC(=O)COc2ccc3c(c2)CCC3)c2ccccc2N1 | > 42 µM (inactive)
82 | Cc1ccc(C(=O)N/C(=C\c2cccs2)C(=O)NCCc2c[nH]c3ccccc23)cc1 | > 42 µM (inactive)
83 | Cc1c(C(=O)N2CCOCC2)c(S(=O)(=O)Nc2cccc(Br)c2)c(C)n1C | > 42 µM (inactive)
84 | COC(CNC(=O)c1cn(C)c2ccc(S(=O)(=O)N3CCOCC3)cc2c1=O)OC | > 42 µM (inactive)
85 | CCOC(=O)CN1NC2(CCC(C(C)(C)C)CC2)NC1=S (centres undefined) | > 42 µM (inactive)
86 | CC(NC(=O)C12CC3CC(CC(O)(C3)C1)C2)c1ccccc1 (centres undefined) | > 42 µM (inactive)
87 | Cc1nnc(NC(=O)c2cccc(S(=O)(=O)N3CCCC3)c2)s1 | > 42 µM (inactive)
88 | O=C(CSc1cccc2cccnc12)Nc1cc(C(=O)O)cc(C(=O)O)c1 | > 42 µM (inactive)
89 | COc1cc(C(C2=C(O)CC(C)(C)CC2=O)C2C(=O)CC(C)(C)CC2=O)cc(OC)c1OC (centres undefined) | > 42 µM (inactive)
90 | CCN(CC)c1ccc(N=Cc2c(O)n(Cc3ccccc3)c(=O)[nH]c2=O)cc1 | > 42 µM (inactive)
91 | Cc1ccc(S(=O)(=O)Cc2ccc(C(=O)N3CCN(c4ccccn4)CC3)o2)cc1 | > 42 µM (inactive)
92 | CC(=O)Nc1ccc(S(=O)(=O)Nc2ccc3c(c2)C(=O)OC3)cc1 | > 42 µM (inactive)
93 | CC1CCN(CCCCOc2cccc(C(C)C)c2)CC1 | > 42 µM (inactive)
94 | CCOC(=O)c1nc(Nc2ccccc2CC)c2ccccc2n1 | > 42 µM (inactive)
95 | Cc1ccc(NC(=O)N[C@H](C(=O)O)C(C)C)c(C)c1 | > 42 µM (inactive)
96 | COc1ccc(N2CCN(C(=O)C3CCCN(S(=O)(=O)c4ccc5c(c4)oc(=O)n5C)C3)CC2)cc1 (centres undefined) | > 21 µM (inactive)
97 | Cn1nc(C(=O)NCCc2ccc(Cl)cc2)c2c1-c1ccccc1S(=O)(=O)C2 | > 42 µM (inactive)
98 | CCOc1cc(C(N)=O)cc(Cl)c1OCc1ccccc1 | > 42 µM (inactive)
99 | CCNc1ccc(S(=O)(=O)N(C)C)cc1NCC(=O)Nc1ccccc1Br | > 42 µM (inactive)
